Results reported in patent publication US7829723B2, “Polymorphic forms of (S)-1-cyanobutan-2-yl (S)-1-(3-3-(3-methoxy-4-(oxazol-5-yl)phenyl)uriedo)phenyl)ethylcarbamate” (Vertex Pharmaceuticals Incorporated, priority 2005, dated 2010).
Values after ≈ are worked out from the molar mass of the structure shown.

Key:
[1] = Solubility of Compound 1 at room temperature in various solvents and solvent mixtures; type: physicochemical
[2] = Solubility of Compound 1 at elevated temperatures in various solvents; type: physicochemical; settings: organic solvent or mixture

## CC[C@@H](CC#N)OC(=O)N[C@@H](C)c1cccc(NC(=O)Nc2ccc(-c3cnco3)c(OC)c2)c1 [Compound 1, (S)-1-cyanobutan-2-yl (S)-1-(3-(3-(3-methoxy-4-(oxazol-5-yl)phenyl)ureido)phenyl)ethylcarbamate]
[1]; aqueous with cosolvent or surfactant or cyclodextrin, solvent Acetone:H2O 20:80
  solubility: < 8.9 mg/mL
[1]; organic solvent or mixture, solvent 2-Butanone (MEK)
  solubility: 10.5 mg/mL (≈ 22 mM)
[1]; organic solvent or mixture, solvent Acetone
  solubility: 11 mg/mL (≈ 23 mM)
[1]; organic solvent or mixture, solvent Acetonitrile
  solubility: 1.6 mg/mL (≈ 3.35 mM)
[1]; organic solvent or mixture, solvent EtOH
  solubility: 1.6 mg/mL (≈ 3.35 mM)
[1]; organic solvent or mixture, solvent THF
  solubility: 35 mg/mL (≈ 73.3 mM)
[2]; solvent Acetone, 40° C.
  solubility: 61 mg/mL (≈ 128 mM)
[2]; solvent Acetone, Boiling point (56° C.)
  solubility: 67 mg/mL (≈ 140 mM)
[2]; solvent MeOH, 40° C.
  solubility: 33 mg/mL (≈ 69.1 mM)
[2]; solvent MeOH, 50° C.
  solubility: 36 mg/mL (≈ 75.4 mM)
[2]; solvent MeOH, Boiling point (65° C.)
  solubility: 92 mg/mL (≈ 193 mM)
[2]; solvent THF, 40° C.
  solubility: 75 mg/mL (≈ 157 mM)
[2]; solvent THF, Boiling point (65° C.)
  solubility: 115 mg/mL (≈ 241 mM)
[2]; solvent Toluene, 50° C.
  solubility: < 2.3 mg/mL
[2]; solvent t-Butyl methyl ether (MTBE), 45° C.
  solubility: < 10.4 mg/mL
